Results reported in patent publication US8008506B2, “Indazole compounds” (priority 2008, dated 2011).

Experiments:
[1] = target: T1, human β3 adrenergic receptor (Homo sapiens, UniProt P13945); test: Test Example 1-A: human β3 adrenergic receptor agonist activity (cAMP EIA, transfected CHO cells, 24-well); format: cell-based; settings: Table 1; maximum response to isoproterenol taken as 100%
T1 construct: the full length human β3 gene is obtained from a human genomic library; expressed in transfected cells; host or cells: CHO (Chinese Hamster Ovary) cells, pcDNA3, geneticin selection
T1 sequence (P13945 whole entry): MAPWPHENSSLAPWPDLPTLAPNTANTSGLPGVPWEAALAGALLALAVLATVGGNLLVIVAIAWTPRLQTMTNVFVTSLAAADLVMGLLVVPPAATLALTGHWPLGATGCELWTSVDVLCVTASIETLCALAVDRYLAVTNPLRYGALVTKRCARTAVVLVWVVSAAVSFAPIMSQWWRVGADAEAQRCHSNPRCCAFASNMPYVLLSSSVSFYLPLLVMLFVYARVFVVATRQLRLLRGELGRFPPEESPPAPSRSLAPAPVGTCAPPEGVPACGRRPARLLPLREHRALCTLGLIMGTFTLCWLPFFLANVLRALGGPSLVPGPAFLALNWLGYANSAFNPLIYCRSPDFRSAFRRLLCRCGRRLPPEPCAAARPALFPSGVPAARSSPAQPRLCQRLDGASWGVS
Method: (§1) Measurement of Human β3 Adrenergic Receptor Agonist Activity
The measurement of human β3 adrenergic receptor agonist activity is carried out using CHO (Chinese Hamster Ovary) cells transfected with pcDNA3 (manufactured by Invitrogen, Inc.) to which human β3 gene has been inserted. […] This human β3 cDNA fragment is used as a probe, and the full length human β3 gene is obtained from a human genomic library (manufactured by Clontech Laboratories, Inc.). The above cells are cultured in Ham's F-12 medium containing 10% fetal bovine serum and 400 μg/ml geneticin (manufactured by Invitrogen, Inc.). These cells are seeded on a 24-well plate to a concentration of 1×10^5 cells/well, and after being cultured for about 20 hours, the cells are left to stand in serum-free Ham's F-12 medium for 2 hours. A test compound is initially dissolved in DMSO, and then is diluted stepwise with Ham's F-12 containing 20 mmol/L HEPES, 1 mmol/L isobutylmethylxanthine, and 1 mmol/L ascorbic acid. The dilution is added to the cells. After the cells are cultured for 30 minutes, and then the medium is removed, followed by addition of 0.1 ml of 1 N NaOH to the cells. The cells are left to stand for 20 minutes, and then are added with 0.1 ml of 1 N acetic acid and are stirred. The resulting cell lysate is centrifuged, and then is subjected to quantification of cAMP with cAMP EIA kit (manufactured by Cayman Chemical Co.).

[2] = target: T1, human β3 adrenergic receptor; test: Test Example 1-B: human β3 adrenergic receptor agonist activity (cAMP-Screen kit, transfected CHO cells, 96-well); format: cell-based; settings: Table 2; maximum response to isoproterenol taken as 100%
Method: as §1
The measurement of human β3 adrenergic receptor agonist activity is carried out using CHO (Chinese Hamster Ovary) cells transfected with pcDNA3 (manufactured by Invitrogen, Inc.) to which human β3 gene has been inserted. […] This human β3 cDNA fragment is used as a probe, and the full length human β3 gene is obtained from a human genomic library (manufactured by Clontech Laboratories, Inc.). The above cells are cultured in Ham's F-12 medium containing 10% fetal bovine serum and 400 μg/ml geneticin (manufactured by Invitrogen, Inc.). These cells are seeded on a 96-well plate to a concentration of 2×10^4 cells/well, and after being cultured for about 20 hours, the cells are left to stand in 80 μL of serum-free Ham's F-12 medium for 15 minutes. A test compound is initially dissolved in DMSO, and then is diluted stepwise with Ham's F-12 containing 100 mmol/L HEPES and 1 mmol/L isobutylmethylxanthine. 20 μL of the dilution is added to the cells. After the cells are cultured for 30 minutes, the medium is removed. 0.3. ml of the Assay/lysis Buffer included in cAMP-Screen kit (manufactured by Applied Biosystems, Inc.) is added to the cells, and the cells are incubated at 37° C. for 30 minutes. The resulting cell lysate is subjected to quantification of cAMP with the cAMP-Screen kit.

[3] = tested on: urinary bladder smooth muscle isolated from common marmoset; test: Test Example 7: relaxant activity on urinary bladder smooth muscle isolated from common marmoset; settings: KCl 40 mmol/L contraction, papaverine 10^−4 mol/L relaxation taken as 100%
Method: Common marmosets are (CLEA Japan, Inc.) exsanguinated to death, and then are subjected to laparotomy to isolate the urinary bladder therefrom. […] The strips are applied a resting tension of 1 g, and are equilibrated for at least 30 minutes. After the resting tension of the strips have been equilibrated, KCl at a final concentration of 40 mmol/L is repeatedly added to the organ bath, and it is confirmed that contraction due to KCl becomes almost constant. […] When the relaxation response at the maximum concentration of the test compound is completed, papaverine at a final concentration of 10^−4 mol/L is added, and the maximum relaxation response of each strip is determined.

CC(C)NCC(O)c1ccc(O)c(O)c1 (stereo not shown) [Isoproterenol, reference compound]
β3 receptor I.A. [1]: 100%
β3 receptor I.A. [2]: 100%
relaxant activity (%) 10^−4 M ([3]; 10^−4 M): 62.8%
relaxant activity (%) 10^−5 M ([3]; 10^−5 M): 58.0%
